Read-outs that look alike come from different tables or passages of the source. Values belong to the compound of their own block, whether it stands above or below them.
Test system: IL-1β production in PMA-differentiated THP-1 cells
Test: IL-1β production in PMA-differentiated THP-1 cells stimulated with gramicidin (hTHP-1 assay, 2% fetal bovine serum; Procedures 1-3)
Type: cell-based, human
In short: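 IL-1β released into supernatants was read by HTRF after 2 h gramicidin (5 μM) challenge. Before challenge, compounds (3-fold dilutions, top 100 μM, 0.37% DMSO) were given 1 h on THP-1 cells differentiated with PMA (20 ng/ml, 16-18 h) and held in 2% FBS medium.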

[1] = hTHP-1 assay containing 2% fetal bovine serum, Table B2, class symbols, read-out: IC50
[2] = Table B3, hTHP-1 assay containing 2% fetal bovine serum, gramicidin stimulation, IL-1β readout, read-out: hTHP-1 IC50

IC50 [1]: 1000 to 5000 nM
Compound: CC(C)(O)c1cnc(S(N)(=O)=NC(=O)Nc2c3c(cc4c2C(O)CC4)CCC3)s1 (single isomer, unassigned) [Example 652, (R,R) or (R,S)-N′-((3-hydroxy-1,2,3,5,6,7-hexahydro-s-indacen-4-yl)carbamoyl)-5-(2-hydroxypropan-2-yl)thiazole-2-sulfonimidamide]

IC50 [1]: 5000 to 30000 nM
Compound: C=CCc1c2c(c(NC(=O)N=S(N)(=O)c3cc(C(C)(C)O)n(-c4ccccc4)n3)c3c1CCC3)CCC2 (single isomer, unassigned) [Example 567, (S) or (R)-N′-((8-allyl-1,2,3,5,6,7-hexahydro-s-indacen-4-yl)carbamoyl)-5-(2-hydroxypropan-2-yl)-1-phenyl-1H-pyrazole-3-sulfonimidaimde]

IC50 [2]: 5000 to 30000 nM
Compound: NS(=O)(=NC(=O)Nc1c2c(cc3c1CC3)CCC2)c1sc2c(c1F)COCC2 (single isomer, unassigned) [Example 842, (S) or (R)-3-fluoro-N′-((2,4,5,6-tetrahydro-1H-cyclobuta[f]inden-3-yl)carbamoyl)-6,7-dihydro-4H-thieno[3,2-c]pyran-2-sulfonimidamide]

IC50 (Homo sapiens, THP-1, hTHP-1 assay containing 2% fetal bovine serum, Table B2, class symbols, read-out: IC50): 5000 to 30000 nM
Compound: CCCc1c2c(c(NC(=O)N=S(N)(=O)c3cc(C(C)(C)O)n(-c4ccccc4)n3)c3c1CCC3)CCC2 (centres unmarked) [Example 513, 5-(2-hydroxypropan-2-yl)-1-phenyl-N′-((8-propyl-1,2,3,5,6,7-hexahydro-s-indacen-4-yl)carbamoyl)-1H-pyrazole-3-sulfonimidamide]

IC50 (hTHP-1 assay containing 2% fetal bovine serum, Table B2, given as bound, read-out: IC50): > 30000 nM
Compound: CN(Cc1ccc(S(N)(=O)=NC(=O)Nc2c3c(cc4c2CCC4)CCC3)cc1)CC(F)(F)F (single isomer, unassigned) [Example 609, (S) or (R)-N′-((1,2,3,5,6,7-hexahydro-s-indacen-4-yl)carbamoyl)-4-((methyl(2,2,2-trifluoroethyl)amino)methyl) benzenesulfonimidamide]

IC50 [1]: 200 to 1000 nM
Compound: NS(=O)(=NC(=O)Nc1c2c(cc3c1CCC3)CCC2)c1ccc(C2CCNC2)cc1F (single isomer, unassigned) [Example 624, (R,R) or (S,R)-2-fluoro-N′-((1,2,3,5,6,7-hexahydro-s-indacen-4-yl)carbamoyl)-4-pyrrolidin-3-yl) benzenesulfonimidamide]

IC50 [2]: 8 to 40 nM
Compound: CN[C@H](c1ccc(S(N)(=O)=NC(=O)Nc2c3c(cc4c2CC4)CCC3)s1)C1CC1 (single isomer, unassigned) [Example 868, (R, R) or (S, R)-5-(cyclopropyl(methylamino)methyl)-N′-((2,4,5,6-tetrahydro-1H-cyclobuta[f]inden-3-yl)carbamoyl)thiophene-2-sulfonimidamide]

IC50 [1]: 200 to 1000 nM
Compound: CN(C)C(c1ccc(S(N)(=O)=NC(=O)Nc2c3c(cc4c2CCC4)CCC3)cc1)C1CC1 (single isomer, unassigned) [Example 660]

IC50 (Homo sapiens, THP-1, Table B3, hTHP-1 assay containing 2% fetal bovine serum, gramicidin stimulation, IL-1β readout, read-out: hTHP-1 IC50): 1000 to 5000 nM
Compound: NS(=O)(=NC(=O)Nc1c2c(cc3c1CCC3)CCC2)c1ccc(-c2ccccc2O)s1 (centres unmarked) [Example 729, N′-((1,2,3,5,6,7-hexahydro-s-indacen-4-yl)carbamoyl)-5-(2-hydroxyphenyl)thiophene-2-sulfonimidamide]

IC50 [2]: 200 to 1000 nM
Compound: C[C@@](O)(CO)c1ncc(S(N)(=O)=NC(=O)Nc2c3c(cc4c2CC4)CCC3)s1 (single isomer, unassigned) [Example 818, (S) or (R)-2-((R)-1,2-dihydroxypropan-2-yl)-N′-((2,4,5,6-tetrahydro-1H-cyclobuta[f]inden-3-yl)carbamoyl)thiazole-5-sulfonimidamide]

IC50 (Homo sapiens, THP-1, hTHP-1 assay containing 2% fetal bovine serum, Table B2, given as bound, read-out: IC50): > 30000 nM
Compound: CC(C)(O)c1cnc(S(N)(=O)=NC(=O)Nc2c3c(cc4c2CCC4O)CCC3)s1 (single isomer, unassigned) [Example 655, (S,R) or (S,S)-N′-((1-hydroxy-1,2,3,5,6,7-hexahydro-5-indacen-4-yl)carbamoyl)-5-(2-hydroxypropan-2-yl)thiazole-2-sulfonimidamide]

Reference: patent US20230051589A1, “COMPOUNDS AND COMPOSITIONS FOR TREATING CONDITIONS ASSOCIATED WITH NLRP ACTIVITY” (Novartis AG, priority 2018, published 2023)
